Data published in patent US20090042987A1, “TREATMENT OF NEUROPATHIC PAIN” (priority 2007, published 2009).

Tested on: drug-naïve STZ-diabetic rats
Experiment: von Frey paw withdrawal thresholds, drug-naïve STZ-diabetic rats, Example 2
Assay type: in vivo, rat
Conditions: for Mean (±SEM) AUC (area under the normalized PWT versus time curve) / Mean (±SEM) Peak response (PWT) / Mean (±SEM) % MPR at peak: after 7th consecutive twice-daily dose; for Mean (±SEM) % MPR at peak: 100% MPR = full reversal of tactile allodynia
Description: Experimental Animals Ethical approval for this study was obtained from the Animal Experimentation Ethics Committee of The University of Queensland. Adult male Sprague-Dawley (SD) rats (222±4 g) were used for this study. Rats were housed in a temperature controlled room (21+2.0 C) with a 12/12 hour light/dark cycle. Food and water were available ad libitum. Initiation of drug administration occurred at 8-11 weeks post-STZ administration for rats in Experiment 1 (PCT-001) and at 10-12 weeks post-STZ administration for rats in Experiment 2 (PCT-007).
Test Article Tranilast was supplied by the Sponsor and stored at −4° C. until use. Gabapentin (100 mg/kg, dissolved in water for injection) was utilized as the positive control for this study.
Test Article and Vehicle Preparation Test article formulations were prepared freshly on the day of administration by weighing the appropriate amount of bulk powder and suspending it in the required volume of vehicle. Carboxymethyl cellulose ((CMC) 0.5% in water for injection) was utilized as the vehicle for this study.
Test Article Administration. […] The maximum oral gavage volume administered in this study was […]. 4.4
STZ-Diabetic Rat Model of Painful Diabetic Neuropathy. Painful diabetic neuropathy is a common long-term complication of diabetes in humans that develops as a result of a sustained biochemical nerve injury. […] Following the induction of diabetes with intravenous STZ at 70-80 mg/kg, it generally takes 6-8 wks for tactile allodynia, the defining symptom of PDN, to fully develop in both rat hindpaws.
Induction of STZ-Diabetes in Rats. On day 0, rats were anaesthetized with 3% isoflurane:97% O2 and a short polyethylene cannula (0.5 mm ID, 0.8 mm OD) was inserted into the jugular vein to facilitate the intravenous (i.v.) administration of a single dose of streptozotocin (STZ: 70-80 mg/kg). After STZ injection, the cannula was removed and the jugular vein was tied off and the wound was closed. Rats received subcutaneous benzylpenicillin (60 mg) prior to surgery to prevent infection and were kept warm during surgical recovery. Rats were housed singly prior to further experimentation and were monitored daily from the time of STZ administration with regard to general health and well-being.
Von Frey Assessment of Paw Withdrawal Thresholds. Calibrated von Frey filaments were used to determine the lowest mechanical threshold required to evoke a brisk paw withdrawal reflex in the rat hindpaws. Briefly, rats were transferred individually to wire mesh testing cages (20 cm×20 cm×20 cm) and allowed to acclimatize for approximately 10-20 min prior to von Frey testing. Commencing with the von Frey filament that produced the 6 g force, the filament was applied to the plantar surface of the hindpaw until the filament buckled slightly. Absence of a response after 3 s prompted use of the next filament of increasing weight. A withdrawal response within 3 s prompted use of the next filament of decreasing weight. Filaments used produced buckling weights of 2, 4, 6, 8, 10, 12, 14, 16, 18 and 20 g. […] Tactile allodynia is regarded as being fully developed when von Frey PWTs in the injured hindpaws are <6 g.
Restoring von-Frey PWTs in the hindpaws from <6 g to pre-STZ surgery levels (12±2 g) is the treatment goal representing full reversal of tactile allodynia. If drug treatment increases PWTs above pre-surgical baseline values (i.e. >12±2 g), such a response is classified as antinociception. Before administration of STZ, baseline von Frey measurements were assessed. Following STZ administration, baseline PWTs were assessed in the hindpaws at week 8-11 to confirm the development of diabetes-induced tactile allodynia.
Dose-Response Curve for Tranilast in Drug-Naive STZ-Diabetic Rats. […]

## COc1ccc(/C=C/C(=O)Nc2ccccc2C(=O)O)cc1OC [Tranilast, 2-[[3-(3,4-dimethoxyphenyl)-1-oxo-2-propenyl]amino]benzoic acid]
Tranilast 100 mg/kg oral twice-daily, prior to dose 1
  Mean (±SEM) von Frey Paw Withdrawal threshold assessed prior to dose: 4.8 ± 0.5 g
Tranilast 100 mg/kg oral twice-daily, prior to dose 3
  Mean (±SEM) von Frey Paw Withdrawal threshold assessed prior to dose: 4.4 ± 0.7 g
Tranilast 100 mg/kg oral twice-daily, prior to dose 5
  Mean (±SEM) von Frey Paw Withdrawal threshold assessed prior to dose: 5.1 ± 0.5 g
Tranilast 100 mg/kg oral twice-daily, prior to dose 7
  Mean (±SEM) von Frey Paw Withdrawal threshold assessed prior to dose: 5.3 ± 0.5 g
Tranilast 100 mg/kg oral twice-daily, time 0 h (pre-dose)
  Mean (±SEM) von Frey Paw Withdrawal threshold following the 7th consecutive dose: 5.3 ± 0.4 g
Tranilast 100 mg/kg oral twice-daily, time 0.15 h
  Mean (±SEM) von Frey Paw Withdrawal threshold following the 7th consecutive dose: 6.0 ± 0 g
Tranilast 100 mg/kg oral twice-daily, time 0.5 h
  Mean (±SEM) von Frey Paw Withdrawal threshold following the 7th consecutive dose: 7.25 ± 0.5 g
Tranilast 100 mg/kg oral twice-daily, time 0.75 h
  Mean (±SEM) von Frey Paw Withdrawal threshold following the 7th consecutive dose: 7.75 ± 0.25 g
Tranilast 100 mg/kg oral twice-daily, time 1 h
  Mean (±SEM) von Frey Paw Withdrawal threshold following the 7th consecutive dose: 8.25 ± 0.5 g
Tranilast 100 mg/kg oral twice-daily, time 1.25 h
  Mean (±SEM) von Frey Paw Withdrawal threshold following the 7th consecutive dose: 8.0 ± 0 g
Tranilast 100 mg/kg oral twice-daily, time 1.5 h
  Mean (±SEM) von Frey Paw Withdrawal threshold following the 7th consecutive dose: 6.75 ± 0.5 g
Tranilast 100 mg/kg oral twice-daily, time 2 h
  Mean (±SEM) von Frey Paw Withdrawal threshold following the 7th consecutive dose: 7.0 ± 0.6 g
Tranilast 100 mg/kg oral twice-daily, time 3 h
  Mean (±SEM) von Frey Paw Withdrawal threshold following the 7th consecutive dose: 6.25 ± 0.3 g
Tranilast 100 mg/kg oral
  Mean (±SEM) AUC (area under the normalized PWT versus time curve): 4.98 ± 1.7
  Mean (±SEM) Peak response (PWT): 8.25 ± 0.5
  Mean (±SEM) % MPR at peak: 53.2 ± 3.3%
Tranilast 200 mg/kg oral twice-daily, prior to dose 1
  Mean (±SEM) von Frey Paw Withdrawal threshold assessed prior to dose: 4.9 ± 0.6 g
Tranilast 200 mg/kg oral twice-daily, prior to dose 3
  Mean (±SEM) von Frey Paw Withdrawal threshold assessed prior to dose: 5.2 ± 0.6 g
Tranilast 200 mg/kg oral twice-daily, prior to dose 5
  Mean (±SEM) von Frey Paw Withdrawal threshold assessed prior to dose: 5.2 ± 0.5 g
Tranilast 200 mg/kg oral twice-daily, prior to dose 7
  Mean (±SEM) von Frey Paw Withdrawal threshold assessed prior to dose: 5.2 ± 0.5 g
Tranilast 200 mg/kg oral twice-daily, time 0 h (pre-dose)
  Mean (±SEM) von Frey Paw Withdrawal threshold following the 7th consecutive dose: 5.2 ± 0.4 g
Tranilast 200 mg/kg oral twice-daily, time 0.15 h
  Mean (±SEM) von Frey Paw Withdrawal threshold following the 7th consecutive dose: 5.75 ± 0.7 g
Tranilast 200 mg/kg oral twice-daily, time 0.5 h
  Mean (±SEM) von Frey Paw Withdrawal threshold following the 7th consecutive dose: 7.25 ± 0.5 g
Tranilast 200 mg/kg oral twice-daily, time 0.75 h
  Mean (±SEM) von Frey Paw Withdrawal threshold following the 7th consecutive dose: 8.25 ± 0.25 g
Tranilast 200 mg/kg oral twice-daily, time 1 h
  Mean (±SEM) von Frey Paw Withdrawal threshold following the 7th consecutive dose: 8.75 ± 0.5 g
Tranilast 200 mg/kg oral twice-daily, time 1.25 h
  Mean (±SEM) von Frey Paw Withdrawal threshold following the 7th consecutive dose: 7.25 ± 0.25 g
Tranilast 200 mg/kg oral twice-daily, time 1.5 h
  Mean (±SEM) von Frey Paw Withdrawal threshold following the 7th consecutive dose: 7.0 ± 0.5 g
Tranilast 200 mg/kg oral twice-daily, time 2 h
  Mean (±SEM) von Frey Paw Withdrawal threshold following the 7th consecutive dose: 7.25 ± 0.25 g
Tranilast 200 mg/kg oral twice-daily, time 3 h
  Mean (±SEM) von Frey Paw Withdrawal threshold following the 7th consecutive dose: 6.0 ± 0 g
Tranilast 200 mg/kg oral
  Mean (±SEM) AUC (area under the normalized PWT versus time curve): 5.75 ± 0.7
  Mean (±SEM) Peak response (PWT): 8.75 ± 0.5
  Mean (±SEM) % MPR at peak: 62.6 ± 11.7%
Tranilast 300 mg/kg oral twice-daily, prior to dose 1
  Mean (±SEM) von Frey Paw Withdrawal threshold assessed prior to dose: 4.2 ± 0.6 g
Tranilast 300 mg/kg oral twice-daily, prior to dose 3
  Mean (±SEM) von Frey Paw Withdrawal threshold assessed prior to dose: 3.7 ± 0.8 g
Tranilast 300 mg/kg oral twice-daily, prior to dose 5
  Mean (±SEM) von Frey Paw Withdrawal threshold assessed prior to dose: 3.9 ± 0.7 g
Tranilast 300 mg/kg oral twice-daily, prior to dose 7
  Mean (±SEM) von Frey Paw Withdrawal threshold assessed prior to dose: 4.8 ± 0.6 g
Tranilast 300 mg/kg oral twice-daily, time 0 h (pre-dose)
  Mean (±SEM) von Frey Paw Withdrawal threshold following the 7th consecutive dose: 4.8 ± 0.5 g
Tranilast 300 mg/kg oral twice-daily, time 0 h (pre-dose), listed as tranilast
  Mean (±SEM) von Frey Paw Withdrawal threshold following the 7th consecutive dose: 4.8 (±0.5) g
Tranilast 300 mg/kg oral twice-daily, time 0.15 h
  Mean (±SEM) von Frey Paw Withdrawal threshold following the 7th consecutive dose: 5.4 ± 0.7 g
Tranilast 300 mg/kg oral twice-daily, time 0.5 h
  Mean (±SEM) von Frey Paw Withdrawal threshold following the 7th consecutive dose: 8.6 ± 1.5 g
